Assay results as given in BindingDB's records for doi:10.7270/Q2736T2X (n/a, 1995).

Experiments:
[1] = biological target: Muscarinic acetylcholine receptor M1/M2/M3/M4/M5; test: Binding affinity towards muscarinic receptor using [3H]quinuclidinyl benzilate (QNB) to label antagonist sites in membrane preparations from rat neocortex
[2] = biological target: Muscarinic acetylcholine receptor M1/M2/M3/M4/M5; test: Binding affinity towards muscarinic receptor using [3H]cis-methyldioxolane (CMD) to label agonist sites in membrane preparations from rat neocortex

IC50 [1]: 6.4 µM
IC50 [2]: 0.028 µM
Structure (SMILES): O=[N+]([O-])c1cccc(C#CCO[N-][C+]2CN3CCC2C3)c1 (configuration not stated) [1-Aza-bicyclo[2.2.1]heptan-3-one O-[3-(3-nitro-phenyl)-prop-2-ynyl]-oxime]
